# Results reported in the supplement of paper PMC11208160.
# Test: recombinant barcode read abundance after kanamycin selection (control-corrected) (log10(CPM+1)); higher = more efficient recombination; sequences stand for … in AGTGCAGAGAAAATCGGCCAGTTTTCTCTGCCTGCAGTCCGCATGCCGT…AGATTTATGCAGCGGACTGCCTTTCTCCCAAAGTGATAAACCGGACAGTATCATGGACCGGTTTTCCCGGTAATCCGTATTTGCAAGGTTGGTTTCACT; site = the 11-nt target
# In short: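 Reported as log10(CPM+1), each value stands for recombination efficiency. That efficiency is the averaged, control-corrected counts per million of barcodes found at recombinant junctions. Cells from a pooled E. coli library pairing targets with IS621 bridge RNA target-binding loops were plated twice on chloramphenicol/ampicillin LB agar (control) and twice on chloramphenicol/ampicillin/kanamycin with 0.1 mM IPTG.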
# 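Further: IS621 recombinase and bridge RNA in Escherichia coli cells.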
row,Sequence,recombinant barcode read abundance (log10)
1,TACAAGCCTTGGGTTCTAACCTGTTGCGG (site TACAAGTCTCT),0.051
2,TACAAGTCTTGGGTTCTAACCTGTTGCAG (site TACAAGCCTCC),0.11
3,TACAAGTCTTGGGTTCTAACCTGTTGCAG (site TACAAGTCTCT),1.47
4,TACACTACTTGGGTTCTAACCTGTTGCAT (site TACACTACTAT),0.131
5,TACACTACTTGGGTTCTAACCTGTTGCAT (site TACCCTACTAT),0.134
6,TACAGACCTTGGGTTCTAACCTGTTGCAG (site ACGGAGTCTTA),0.128
7,TACAGACCTTGGGTTCTAACCTGTTGCAG (site TACAGACCTCT),1.28
8,TACAGTCCTTGGGTTCTAACCTGTTGCCT (site TACAGTCCTAG),1.06
9,TACAGTCCTTGGGTTCTAACCTGTTGCCT (site TGCACTCCTAG),0.276
10,TACCACTCTTGGGTTCTAACCTGTTGCCT (site AACCACTCTAG),0.335
11,TACCACTCTTGGGTTCTAACCTGTTGCCT (site CACCACTCTAG),0.887
12,TACCACTCTTGGGTTCTAACCTGTTGCCT (site GACCACTCTAG),0.13
13,TACCACTCTTGGGTTCTAACCTGTTGCCT (site TACCACTCTAG),2.24
14,TACCAGTCTTGGGTTCTAACCTGTTGCTT (site TACCAGTCTAA),1.74
15,TACCAGTCTTGGGTTCTAACCTGTTGCTT (site TACCCGTCTAA),0.0102
16,TACCAGTCTTGGGTTCTAACCTGTTGCTT (site TACCGGTCTAA),0.293
17,TACCAGTCTTGGGTTCTAACCTGTTGCTT (site TACCTGTCTAA),0.111
18,TACCCGCCTTGGGTTCTAACCTGTTGCTA (site TACCCGCCTTA),0.59
19,TACCCGCCTTGGGTTCTAACCTGTTGCTA (site TACCCTACTTA),0.066
20,TACCCGTCTTGGGTTCTAACCTGTTGCTT (site TACCAGTCTAA),0
21,TACCCGTCTTGGGTTCTAACCTGTTGCTT (site TACCCGTCTAA),0.399
22,TACCCGTCTTGGGTTCTAACCTGTTGCTT (site TACCGGTCTAA),0.168

row,Sequence,recombinant barcode read abundance (log10)
1,TACCCGTCTTGGGTTCTAACCTGTTGCTT (site TACCTGTCTAA),0.0134
2,TACCGGCCTTGGGTTCTAACCTGTTGCTT (site TACCGGACTAC),0.0691
3,TACCGGCCTTGGGTTCTAACCTGTTGCTT (site TACCGGCCTAA),0.444
4,TACCTACCTTGGGTTCTAACCTGTTGCGA (site ATAACTACTAA),0.0536
5,TACCTACCTTGGGTTCTAACCTGTTGCGA (site TACCTACCTTC),1.92
6,TACCTATCTTGGGTTCTAACCTGTTGCGT (site TACCTAGCTAC),0.0617
7,TACCTATCTTGGGTTCTAACCTGTTGCGT (site TACCTATCTAC),1.83
8,TACGAACCTTGGGTTCTAACCTGTTGCGT (site TACGAACCTAC),2.94
9,TACGAACCTTGGGTTCTAACCTGTTGCGT (site TAGGAGCCTAC),0.335
10,TACGCCTCTTGGGTTCTAACCTGTTGCTA (site TACGCCTCTTA),1.31
11,TACGCCTCTTGGGTTCTAACCTGTTGCTA (site TGCGCCTCTCA),0.299
12,TACGGGGCTTGGGTTCTAACCTGTTGCCT (site TACGAGGCTAG),0.166
13,TACGGGGCTTGGGTTCTAACCTGTTGCCT (site TACGCGGCTAG),0.139
14,TACGGGGCTTGGGTTCTAACCTGTTGCCT (site TACGGGGCTAG),0.572
15,TACGGGGCTTGGGTTCTAACCTGTTGCCT (site TACGTGGCTAG),0.414
16,TACGGGTCTTGGGTTCTAACCTGTTGCCT (site AAGGGGTCTAG),0.0993
17,TACGGGTCTTGGGTTCTAACCTGTTGCCT (site TACGGGTCTAG),1.16
18,TACTAAACTTGGGTTCTAACCTGTTGCCT (site TACTAAACTAG),0.267
19,TACTAAACTTGGGTTCTAACCTGTTGCCT (site TACTCAACTAG),0.0276
20,TACTAAACTTGGGTTCTAACCTGTTGCCT (site TACTGAACTAG),0.0606
21,TACTAAACTTGGGTTCTAACCTGTTGCCT (site TACTTAACTAG),0.00687
